The values that follow come from patent US20050014768A1, “Use of 4-oxobutanoic acid derivatives in the treatment of inflammation” (priority 2001, published 2005).

For the test, the system named is carrageenan-induced inflammatory oedema of the rat paw. Description: Test of carrageenan-induced inflammatory oedema (rat paw, plethysmometry). The format is in vivo, Rat of Wistar type. Particulars: for V oedema: difference in paw volume before and three hours after carrageenan, one hour before carrageenan; for Reduction in oedema: versus controls, three hours after carrageenan. As to the method: The compounds of the formula (I) were subjected to biological tests designed to reveal their anti-inflammatory activity. The in vivo activity of the compounds of the formula (I) was studied in an experimental model of inflammation in rats. Inflammatory oedema of the rat paw is induced by intradermal injection of carrageenan (1% V/V) into the hind paw of the rat. This oedema is measured by plethysmometry according to the method of Winter C. A. et al. (Proc. Soc. Exp. Biol. Med.; (1962); 111; 544-547). The substances with an anti-inflammatory effect bring about a reduction in the oedema thus created. Indomethacin is used as anti-inflammatory reference in the test.
Animal model: Rat of Wistar type
Anti-inflammatory reference: indomethacin from the company Sigma
Control: 0.5% methylcellulose hydrogel.
After fasting for one day, the volume of the right hind paw is measured [V paw]. The test compounds, the reference and the control are administered orally in a volume of 10 ml/kg. One hour after administration, oedema is induced by an intraplantar injection of 50 microlitres of carrageenan (1%, VN) hydrogel into the right hind paw. The volume of this paw is measured three hours after inducing the oedema. The intensity of the oedema [V oedema] is evaluated by the difference in the volume of the paw, before and three hours after the injection of carrageenan.

In the case of `COc1ccc2c(c1)c(CC(=O)O)c(C)n2C(=O)c1ccc(Cl)cc1` [Indomethacin, indomethacin, reference compound], under “oral, dose not given”, the V oedema stood at 0.20 mL and the Reduction in oedema is reported as −67%.

Consider `O=C(CC(Cc1ccccc1)C(=O)O)c1ccc(F)cc1` (single isomer, unassigned; (-)) [P, (−)-2-benzyl-4-(4-fluorophenyl)-4-oxobutanoic acid], for which the V oedema worked out at 0.42 mL (oral 30 mg), 0.11 mL (oral 100 mg) and 0.17 mL (oral 300 mg). The Reduction in oedema is, setting by setting: (oral 30 mg) −32%; (oral 100 mg) −83%; (oral 300 mg) −73%.
